# Reference: patent US6413979B1, “Substituted 5-(2,2-difluoro-1,3-benzodioxol-5-yl) cyclopentenopyridine derivative” (Banyu Pharmaceutical Co., Ltd., priority 1998, dated 2002)
# Like-named read-outs stand apart in the source and are kept apart here.
# Key:
# ETA receptor = molecular target: T1, ETA receptor (Homo sapiens, UniProt P25101); test: Endothelin binding inhibition test on human endothelin receptors ([125I]endothelin-1), ETA
# T1 construct: host or cells: human neuroblastoma SK-N-MC cells (membranes)
# T1 sequence (P25101 21-427): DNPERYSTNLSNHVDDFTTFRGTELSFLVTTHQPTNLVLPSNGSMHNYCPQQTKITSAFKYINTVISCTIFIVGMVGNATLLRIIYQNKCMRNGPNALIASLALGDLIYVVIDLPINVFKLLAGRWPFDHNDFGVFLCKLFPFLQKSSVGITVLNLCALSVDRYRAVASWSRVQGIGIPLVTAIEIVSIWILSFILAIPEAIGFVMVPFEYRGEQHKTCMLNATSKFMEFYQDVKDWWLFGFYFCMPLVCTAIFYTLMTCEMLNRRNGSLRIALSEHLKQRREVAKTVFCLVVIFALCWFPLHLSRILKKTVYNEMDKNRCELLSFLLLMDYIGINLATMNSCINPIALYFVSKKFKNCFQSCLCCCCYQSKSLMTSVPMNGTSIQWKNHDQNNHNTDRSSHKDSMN
# Protocol: (§1) Endothelin Binding Inhibition Test on Human Endothelin Recepters
# The human neuroblastoma SK-N-MC cells or the human Giradi heart cells, purchased from Dainippon Seiyaku (Japan), were cultured in minimal essential medium supplemented with fetal calf serum. The cells were collected and homogenized in 10 mM MOPS buffer (pH 7.4) containing 154 mM NaCl, 10 mM KCl, 0.8 mM CaCl2 and 20% sucrose at 4° C. using a polytron homogenizer. The homogenate was then centrifuged at 10,000×g for 15 minutes. The supernatant was centrifuged at 100,000×g for 1 hour at 4° C. Then the pellet was washed with 5 mM HEPES/Tris buffer (pH 7.4). The resulting membranes (50 μl) were mixed with [^125I]endothelin-1 (20 pM) and 4 μl of DMSO solution of a test compound in 67 mM Tris/HCl buffer (pH 7.4) containing 0.13 mM phenylmethanesulfonyl fluoride, 1.3 μM pepstatin, 2.7 μM leupeptin, 1.3 mM 1,10-phenanthroline, 1.3 mM EDTA, 13 μM CaCl2, 13 μM MgCl2 and 0.13% bovine serum albumin (BSA) in a total volume of 0.35 ml. After 4 hours incubation, cold 5 mM HEPES/Tris buffer (pH 7.4) containing 0.3% BSA (Buffer B) was added to the mixture, and free and bound [^125I]endothelin-1 were separated by filtration using Whatman GF/C glass fiber filters. After the filtration, the filters were washed with buffer B, and the radioactivity on the filters was measured in a γ counter. Nonspecific binding was determined in the presence of 200 nM endothelin-1.
# The concentration of a test compound of the present invention causing 50% inhibition of [^125I]endothelin-1 binding (IC50 value) was derived by the following [^125I]endothelin-1 binding inhibition D (%): [formula]
# (§2) where (A): for nonspecific binding including 200 nM of unlabeled endothelin-1 as the final concentration, (B): for total binding including labeled endothelin-1 without a test compound, and (C): for binding including labeled endothelin-1 with a concentration of a test compound, show the radioactivity.
# ETB receptor = molecular target: T2, ETB receptor (Homo sapiens, UniProt P24530); test: Endothelin binding inhibition test on human endothelin receptors ([125I]endothelin-1), ETB; conditions: human cell membranes, 20 pM [125I]endothelin-1, 4 hours incubation
# T2 construct: host or cells: human Girardi heart cells (membranes)
# T2 sequence (P24530 27-442): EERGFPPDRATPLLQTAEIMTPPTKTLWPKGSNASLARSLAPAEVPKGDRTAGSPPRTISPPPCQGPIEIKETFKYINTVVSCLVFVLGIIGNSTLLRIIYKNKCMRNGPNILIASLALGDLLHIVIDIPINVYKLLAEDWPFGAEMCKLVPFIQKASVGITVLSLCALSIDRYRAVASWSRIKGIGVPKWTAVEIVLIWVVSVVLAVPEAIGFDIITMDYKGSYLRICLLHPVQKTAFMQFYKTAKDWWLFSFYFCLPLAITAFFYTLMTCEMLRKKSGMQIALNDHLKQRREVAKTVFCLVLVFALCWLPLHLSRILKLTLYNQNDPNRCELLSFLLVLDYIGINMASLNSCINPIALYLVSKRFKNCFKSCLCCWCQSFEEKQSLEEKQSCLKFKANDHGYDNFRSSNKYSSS
# Protocol: as §1
# The human neuroblastoma SK-N-MC cells or the human Giradi heart cells, purchased from Dainippon Seiyaku (Japan), were cultured in minimal essential medium supplemented with fetal calf serum. The cells were collected and homogenized in 10 mM MOPS buffer (pH 7.4) containing 154 mM NaCl, 10 mM KCl, 0.8 mM CaCl2 and 20% sucrose at 4° C. using a polytron homogenizer. The homogenate was then centrifuged at 10,000×g for 15 minutes. The supernatant was centrifuged at 100,000×g for 1 hour at 4° C. Then the pellet was washed with 5 mM HEPES/Tris buffer (pH 7.4). […] After the filtration, the filters were washed with buffer B, and the radioactivity on the filters was measured in a γ counter. Nonspecific binding was determined in the presence of 200 nM endothelin-1. […]
# as §2
# [1] = system: endothelin-induced contraction of iliac artery specimen
# Protocol: Effect on Endothelin-induced Contraction of Iliac Artery Specimen from Rabbit
# The iliac artery was excised from a rabbit and made into a spiral specimen of 1 mm wide and 10 mm long. The specimen was stripped of the endothelial cells and suspended in a 5 ml Magnus tube filled with Krebs-Henseleit solution saturated with a gas mixture of O2 (95%) and CO2 (5%), and the change in tension was isometrically measured and recorded.
# The effects of a compound of the present invention on the dose-response curve obtained by cumulative addition of endothelin-1 to the Magnus tube were investigated. A compound of the present invention was added to the Magnus tube at a final concentration of 10 μM 20 minutes before the addition of endothelin-1.
# [2] = 10 mg/kg as sodium salt in water, SD male rats, bioassay
# Protocol: Concentration in Rat Plasma after Oral Administration
# SD male rats (8 weeks old, n=3) were subjected to cannulation of the carotid artery beforehand and after the recovery from the surgery, subjected to a fast of one night for the test. The sodium salt of the diastereomer A prepared in Example 14, which is a representative compound of the present invention, was dissolved in water, and the resulting aqueous solution (concentration: 2.0 mg/ml) was forcibly administrated into the stomach in an amount of 10 mg/kg by gavage. Before the administration and 1, 4 and 8 hours after the administration, 120 μl of the blood was withdrawn from the cannulae in the carotid arteries with the aid of heparin and the plasma was separated by cold centrifugation. 25 μl of portions of the plasma were deproteinized by adding 100 μl of ethanol and centrifuged (10,000×g, 10 minutes, 0° C.) under cooling. 80 μl portions of the supernatants was used for a bioassay of the concentration in plasma.
Structure (SMILES),binding-inhibitory activity to ETA receptor compared with ETB receptor (in words) (ETA receptor),"IC50 (ETA receptor; human cell membranes, 20 pM [125I]endothelin-1, 4 hours incubation) [nM]",ETB/ETA (ETA receptor; ratio of IC50 values),IC50 (ETB receptor) [nM],change in the maximum response to endothelin-1 ([1]; concentrations from 0.1 μM to 10 μM),"effect on the dose-response curve for endothelin-1 ([1]; concentrations from 0.1 μM to 10 μM, added 20 minutes before endothelin-1)",effect of the compound by itself on the artery specimen ([1]; without endothelin-1),concentration in rat plasma ([2]; 1 hour after oral administration) [ng/mL],concentration in rat plasma ([2]; 4 hours after oral administration) [ng/mL],concentration in rat plasma ([2]; 8 hours after oral administration) [ng/mL]
"COc1ccc([C@@H]2c3nc(NC(C)C)ccc3[C@H](c3ccc4c(c3)OC(F)(F)O4)[C@H]2C(=O)O)c(CC(C)C(=O)O)c1 (single isomer, unassigned; diastereomer a) [Diastereomer A of example 18]",far higher binding-inhibitory activity to ETA receptor than to ETB receptor,0.056,ETB/ETA = 1400,78,,,,,,
"COc1ccc([C@@H]2c3nc(NC(C)C)ccc3[C@H](c3ccc4c(c3)OC(F)(F)O4)[C@H]2C(=O)O)c(CC(C)CO)c1 (single isomer, unassigned; diastereomer a) [diastereomer A prepared in Example 14]",,,,,no change in the maximum response,appreciably shifted the dose-response curve for endothelin-1 to the right,no effect on the artery specimen by itself,452,124,203
